Like-named read-outs stand apart in the source and are kept apart here.
Legend:
OVCAR-5 = experiment: cells; assay type: cell-based; details: Homo sapiens
RXF 393 = experiment: cells; assay type: cell-based; details: Homo sapiens
SF-268 = experiment: cells; assay type: cell-based; details: Homo sapiens
T-47D = experiment: cells; assay type: cell-based; details: Homo sapiens, T47D, read-out: growth inhibition % (GI%)
MALME-3M = experiment: cells; assay type: cell-based; details: Homo sapiens, read-out: growth inhibition % (GI%)
OVCAR-8 = experiment: cells; assay type: cell-based; details: Homo sapiens
CAKI-1 = experiment: cells; assay type: cell-based; details: Homo sapiens
HS 578T = experiment: cells; assay type: cell-based; details: Homo sapiens, read-out: growth inhibition % (GI%)
SK-MEL-2 = experiment: cells; assay type: cell-based; details: Homo sapiens
UACC-257 = experiment: cells; assay type: cell-based; details: Homo sapiens
HOP-92 = experiment: cells; assay type: cell-based; details: Homo sapiens
UO-31 = experiment: cells; assay type: cell-based; details: Homo sapiens
MDA-MB-231/ATCC = experiment: NCI 60 cell line antiproliferative screening (SRB), Breast cancer; assay type: cell-based; details: Homo sapiens, MDA-MB-231, read-out: growth inhibition % (GI%)
M14 = experiment: cells; assay type: cell-based; details: Homo sapiens
EGFR = EGFR (Homo sapiens, UniProt P00533); experiment: In vitro EGFR kinase inhibitory assay (Kinase-Glo Max luminescence kit); assay type: biochemical
Sequence of EGFR (P00533 669-1210): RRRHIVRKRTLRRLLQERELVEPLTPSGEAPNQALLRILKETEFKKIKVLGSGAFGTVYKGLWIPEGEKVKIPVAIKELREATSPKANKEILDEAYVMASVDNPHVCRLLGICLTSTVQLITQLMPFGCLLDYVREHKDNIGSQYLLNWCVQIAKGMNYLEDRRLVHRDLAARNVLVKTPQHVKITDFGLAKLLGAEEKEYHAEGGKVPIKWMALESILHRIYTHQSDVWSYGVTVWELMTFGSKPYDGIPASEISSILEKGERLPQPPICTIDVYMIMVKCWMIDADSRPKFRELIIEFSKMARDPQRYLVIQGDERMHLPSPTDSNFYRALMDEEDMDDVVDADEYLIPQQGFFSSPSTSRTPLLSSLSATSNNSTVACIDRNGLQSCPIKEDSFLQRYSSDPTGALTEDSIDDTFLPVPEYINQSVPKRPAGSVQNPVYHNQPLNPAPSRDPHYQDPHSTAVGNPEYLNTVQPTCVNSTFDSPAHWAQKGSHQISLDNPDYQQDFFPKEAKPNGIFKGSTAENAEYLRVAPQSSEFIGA

[1] = OVCAR-5, 10 μM, read-out: growth inhibition % (GI%)
[2] = SF-268, 10 μM, read-out: growth inhibition % (GI%)
[3] = OVCAR-8, 10 μM, read-out: growth inhibition % (GI%)
[4] = SK-MEL-2, 10 μM, read-out: growth inhibition % (GI%)
[5] = UACC-257, 10 μM, read-out: growth inhibition % (GI%)
[6] = HOP-92, 10 μM, read-out: growth inhibition % (GI%)
[7] = UO-31, 10 μM, read-out: growth inhibition % (GI%)
[8] = OVCAR-5, read-out: growth inhibition % (GI%)
[9] = SF-268, read-out: growth inhibition % (GI%)
[10] = OVCAR-8, read-out: growth inhibition % (GI%)
[11] = SK-MEL-2, read-out: growth inhibition % (GI%)
[12] = UACC-257, read-out: growth inhibition % (GI%)
[13] = HOP-92, read-out: growth inhibition % (GI%)
[14] = UO-31, read-out: growth inhibition % (GI%)
[15] = RXF 393, read-out: growth inhibition % (GI%)
[16] = CAKI-1, read-out: growth inhibition % (GI%)
[17] = M14, read-out: growth inhibition % (GI%)

Row | Compound | inhibition at 10 µM (OVCAR-5; [1]) | inhibition at 10 µM (SF-268; [2]) | inhibition at 10 µM (T-47D; T-47D, 10 μM) | inhibition at 10 µM (MALME-3M; MALME-3M, 10 μM) | inhibition at 10 µM (OVCAR-8; [3]) | inhibition at 10 µM (HS 578T; HS 578T, 10 μM) | inhibition at 10 µM (SK-MEL-2; [4]) | inhibition at 10 µM (UACC-257; [5]) | inhibition at 10 µM (HOP-92; [6]) | inhibition at 10 µM (UO-31; [7]) | inhibition at 10 µM (MDA-MB-231/ATCC) | inhibition at 10 µM (OVCAR-5; [8]) | inhibition at 10 µM (SF-268; [9]) | inhibition at 10 µM (T-47D) | inhibition at 10 µM (MALME-3M; Malme-3M) | inhibition at 10 µM (OVCAR-8; [10]) | IC50 (EGFR) | inhibition at 10 µM (HS 578T; Hs-578T) | inhibition at 10 µM (SK-MEL-2; [11]) | inhibition at 10 µM (UACC-257; [12]) | other results
1 | O=C(CSc1nc2ccccc2c(=O)n1-c1ccccc1)NN=Cc1ccc(N2CCCCC2)cc1 [6g, 2-((4-oxo-3-phenyl-3,4-dihydroquinazolin-2-yl)thio)-N'-(4-(piperidin-1-yl)benzylidene) acetohydrazide] | < 15% | < 15% | < 15% | < 15% | < 15% | < 15% | < 15% | < 15% | 19.5% | 23.3% | < 15% |  |  |  |  |  |  |  |  |  | inhibition at 10 µM (RXF 393; RXF 393, 10 μM, read-out: growth inhibition % (GI%)): < 15%; inhibition at 10 µM (CAKI-1; CAKI-1, 10 μM, read-out: growth inhibition % (GI%)): 22%; melting point: 164 to 166 °C; inhibition at 10 µM (M14; M14, 10 μM, read-out: growth inhibition % (GI%)): < 15%
2 | O=C(CSc1nc2ccccc2c(=O)n1-c1ccc(Cl)cc1)NN=Cc1ccc(N2CCCCC2)cc1 [6j, 2-((3–(4-chlorophenyl)-4-oxo-3,4-dihydroquinazolin-2-yl)thio)-N'-(4-(piperidin-1-yl)benzylidene) acetohydrazide] |  |  |  |  |  |  |  |  |  |  | 28.1% | 23.1% | 65.3% | 25.4% | 35.8% | 34.7% | 478 ± 29 nM | 62.1% | < 15% | < 15% | inhibition at 10 µM (HOP-92; [13]): 37.7%; inhibition at 10 µM (UO-31; [14]): 47%
3 | O=C(CSc1nc2ccccc2c(=O)n1-c1ccccc1)NN=Cc1ccc(Oc2ccc(Cl)cc2)cc1 [6a, N'-(4–(4-chlorophenoxy)benzylidene)-2-((4-oxo-3-phenyl-3,4-dihydroquinazolin-2-yl)thio)acetohydrazide] |  |  |  |  |  |  |  |  |  |  | 50.8% | 18.6% | < 15% | 17.5% | 48.7% | 40.8% | 202 ± 12 nM | 41.1% | 13.1% | < 15% | inhibition at 10 µM (RXF 393; [15]): 58%; inhibition at 10 µM (CAKI-1; [16]): 40.8%; inhibition at 10 µM (HOP-92; [13]): 33.3%; inhibition at 10 µM (UO-31; [14]): 18.8%; inhibition at 10 µM (M14; [17]): 51.2%
4 | COc1ccc(Oc2ccc(C=NNC(=O)CSc3nc4ccccc4c(=O)n3-c3ccc(Cl)cc3)cc2)cc1 [6f, 2-((3–(4-chlorophenyl)-4-oxo-3,4-dihydroquinazolin-2-yl)thio)-N'-(4–(4-methoxyphenoxy)benzylidene)acetohydrazide] |  |  |  |  |  |  |  |  |  |  | 53.3% | 18.8% | 42.1% | 62.1% | 36.1% | < 15% | 133 ± 8 nM | > 100% | < 15% | < 15% | inhibition at 10 µM (HOP-92; [13]): 22.7%; inhibition at 10 µM (UO-31; [14]): 52.3%
5 | O=C(CSc1nc2ccccc2c(=O)n1-c1ccc(Cl)cc1)NN=Cc1ccc(Oc2ccc(Br)cc2)cc1 [6e, N'-(4–(4-bromophenoxy)benzylidene)-2-((3–(4-chlorophenyl)-4-oxo-3,4-dihydroquinazolin-2-yl)thio)acetohydrazide] | < 15% | < 15% | < 15% | < 15% | < 15% | < 15% | < 15% | < 15% | < 15% | 20.8% | < 15% |  |  |  |  |  |  |  |  |  | 
6 | CN1CCN(c2ccc(C=NNC(=O)CSc3nc4ccccc4c(=O)n3-c3ccccc3)cc2)CC1 [6i, N'-(4–(4-methylpiperazin-1-yl)benzylidene)-2-((4-oxo-3-phenyl-3,4-dihydroquinazolin-2-yl)thio) acetohydrazide] | < 15% | < 15% | < 15% | < 15% | < 15% | < 15% | < 15% | < 15% | < 15% | < 15% | < 15% |  |  |  |  |  |  |  |  |  | 
7 | O=C(CSc1nc2ccccc2c(=O)n1-c1ccccc1)NN=Cc1ccc(Oc2ccc(Br)cc2)cc1 [6b, N'-(4–(4-bromophenoxy)benzylidene)-2-((4-oxo-3-phenyl-3,4-dihydroquinazolin-2-yl)thio) acetohydrazide] |  |  |  |  |  |  |  |  |  |  | 49.1% | < 15% | 15.7% | 17.6% | 45.1% | 36.7% | 487 ± 30 nM | 39.2% | < 15% | < 15% | inhibition at 10 µM (RXF 393; [15]): 37.8%; inhibition at 10 µM (CAKI-1; [16]): 29.2%; inhibition at 10 µM (HOP-92; [13]): 27%; inhibition at 10 µM (UO-31; [14]): < 15%; inhibition at 10 µM (M14; [17]): 43.7%
8 | CN1CCN(c2ccc(C=NNC(=O)CSc3nc4ccccc4c(=O)n3-c3ccc(Cl)cc3)cc2)CC1 [6l, 2-((3–(4-chlorophenyl)-4-oxo-3,4-dihydroquinazolin-2-yl)thio)-N'-(4–(4-methylpiperazin-1-yl)benzylidene)acetohydrazide] | < 15% | < 15% | < 15% | < 15% | < 15% | < 15% | < 15% | < 15% | < 15% | < 15% | < 15% |  |  |  |  |  |  |  |  |  | 
9 | O=C(CSc1nc2ccccc2c(=O)n1-c1ccccc1)NN=Cc1ccc(N2CCOCC2)cc1 [6h, N'-(4-morpholinobenzylidene)-2-((4-oxo-3-phenyl-3,4-dihydroquinazolin-2-yl)thio)acetohydrazide] | < 15% | < 15% | < 15% | < 15% | < 15% | < 15% | < 15% | < 15% | 18.7% | < 15% | < 15% |  |  |  |  |  |  |  |  |  | 
10 | COc1ccc(Oc2ccc(C=NNC(=O)CSc3nc4ccccc4c(=O)n3-c3ccccc3)cc2)cc1 [6c, N'-(4–(4-methoxyphenoxy)benzylidene)-2-((4-oxo-3-phenyl-3,4-dihydroquinazolin-2-yl)thio)acetohydrazide] | < 15% | < 15% | < 15% | < 15% | < 15% | < 15% | < 15% | < 15% | < 15% | < 15% | < 15% |  |  |  |  |  |  |  |  |  | 
11 | O=C(CSc1nc2ccccc2c(=O)n1-c1ccc(Cl)cc1)NN=Cc1ccc(N2CCOCC2)cc1 [6k, 2-((3–(4-chlorophenyl)-4-oxo-3,4-dihydroquinazolin-2-yl)thio)-N'-(4-morpholinobenzylidene) acetohydrazide] | < 15% | < 15% | < 15% | < 15% | < 15% | < 15% | < 15% | < 15% | < 15% | < 15% | < 15% |  |  |  |  |  |  |  |  |  | 

From publication PMC9518264, “Design and synthesis of novel quinazolinone-based derivatives as EGFR inhibitors with antitumor activity” (Journal of Enzyme Inhibition and Medicinal Chemistry, 2022)
